Experimental data taken from ChEMBL document CHEMBL3875145, “Highly potent anti-leishmanial derivatives of hederagenin, a triperpenoid from Sapindus saponaria L” (Eur J Med Chem, 2016).

How the values were obtained:
[1] = Cytotoxicity against human HepG2 cells assessed as decrease in cell viability after 48 hrs by MTT assay; format: toxicity, cell-based; conditions: read-out: LD50
[2] = Selectivity index, ratio of LD50 for African green monkey BGM cells to IC50 for Leishmania infantum MHOM/BR/70/BH46 promastigotes infected in dog DH82 cells; format: toxicity, cell-based; conditions: read-out: Ratio LD50/IC50
[3] = Selectivity index, ratio of LD50 for human HepG2 cells to IC50 for Leishmania infantum MHOM/BR/70/BH46 promastigotes infected in dog DH82 cells; format: toxicity, cell-based; conditions: read-out: Ratio LD50/IC50
[4] = Cytotoxicity against dog DH82 cells assessed as decrease in cell viability after 48 hrs by MTT assay; format: toxicity, cell-based, Canis lupus familiaris; conditions: read-out: LD50
[5] = Cytotoxicity against African green monkey BGM cells assessed as decrease in cell viability after 48 hrs by MTT assay; format: toxicity, cell-based; conditions: chlorocebus aethiops, read-out: LD50
Leishmania infantum [6] = experiment: Antiparasitic activity against Leishmania infantum MHOM/BR/70/BH46 promastigotes infected in dog DH82 cells after 48 hrs by ELISA method; format: functional, cell-based; conditions: MHOM/BR/70/BH46, DH82, 48 h
[7] = Selectivity index, ratio of LD50 for dog DH82 cells to IC50 for Leishmania infantum MHOM/BR/70/BH46 promastigotes infected in dog DH82 cells; format: toxicity, cell-based; conditions: read-out: Ratio LD50/IC50
Leishmania infantum [8] = experiment: Antiparasitic activity against Leishmania infantum MHOM/BR/70/BH46 promastigotes infected in dog DH82 cells at 1000 uM after 48 hrs by ELISA method; format: functional; conditions: MHOM/BR/70/BH46, DH82, 48 h

SMILES	CC50 at 48 h [1]	selectivity ratio [2]	selectivity ratio [3]	CC50 at 48 h [4]	CC50 at 48 h [5]	IC50 (Leishmania infantum [6])	selectivity ratio [7]	inhibition at 1000 µM (Leishmania infantum [8])
CC1(C)CC[C@]2(C(=O)O)CC[C@]3(C)C(=CC[C@@H]4[C@@]5(C)CC[C@H](O)[C@@](C)(CO)[C@@H]5CC[C@]43C)[C@@H]2C1 [HEDERAGENIN]	< 1000 µM	0.9	16.2	< 1000 µM	57 µM	61.6 µM	10	55.5%
CC1(C)CC[C@]2(C(=O)NCc3cn(Cc4ccc(Cl)cc4)nn3)CC[C@]3(C)C(=CC[C@@H]4[C@@]5(C)CC[C@H](O)[C@@](C)(CO)[C@@H]5CC[C@]43C)[C@@H]2C1	2.5 µM	8.3	0.4	16 µM	50 µM	6 µM	2.6	85.4%
CC1(C)CC[C@]2(C(=O)OCc3cn(Cc4ccc(F)cc4F)nn3)CC[C@]3(C)C(=CC[C@@H]4[C@@]5(C)CC[C@H](O)[C@@](C)(CO)[C@@H]5CC[C@]43C)[C@@H]2C1	> 1000 µM	4.9	> 31.2	66 µM	158 µM	11 µM	6	87.7%
CC1(C)CC[C@]2(C(=O)OCc3ccc(Br)cc3)CC[C@]3(C)C(=CC[C@@H]4[C@@]5(C)CC[C@H](O)[C@@](C)(CO)[C@@H]5CC[C@]43C)[C@@H]2C1	260 µM	10	21.6	83 µM	116 µM	12 µM	6.9	64.5%
COc1cc(COC(=O)[C@]23CCC(C)(C)C[C@H]2C2=CC[C@@H]4[C@@]5(C)CC[C@H](O)[C@@](C)(CO)[C@@H]5CC[C@@]4(C)[C@]2(C)CC3)cc(OC)c1	–	–	–	–	–	110 µM	–	89%
CC1(C)CC[C@]2(C(=O)OCc3cn(Cc4cccc(Br)c4)nn3)CC[C@]3(C)C(=CC[C@@H]4[C@@]5(C)CC[C@H](O)[C@@](C)(CO)[C@@H]5CC[C@]43C)[C@@H]2C1	19 µM	2	0.5	21 µM	78 µM	38 µM	0.5	70.5%
CC1(C)CC[C@]2(C(=O)OCc3cn(Cc4ccccc4[N+](=O)[O-])nn3)CC[C@]3(C)C(=CC[C@@H]4[C@@]5(C)CC[C@H](O)[C@@](C)(CO)[C@@H]5CC[C@]43C)[C@@H]2C1	57 µM	1.3	5.1	212 µM	15 µM	32 µM	6.6	51%
COC(=O)CNC(=O)[C@]12CCC(C)(C)C[C@H]1C1=CC[C@@H]3[C@@]4(C)CC[C@H](O)[C@@](C)(CO)[C@@H]4CC[C@@]3(C)[C@]1(C)CC2	60.6 µM	1	3.5	32.5 µM	20 µM	18 µM	1.8	79.5%
CC1(C)CC[C@]2(C(=O)OCc3c(Cl)cccc3Cl)CC[C@]3(C)C(=CC[C@@H]4[C@@]5(C)CC[C@H](O)[C@@](C)(CO)[C@@H]5CC[C@]43C)[C@@H]2C1	–	–	–	202 µM	–	307 µM	0.6	53%
CC1(C)CC[C@]2(C(=O)NCc3cn(Cc4ccccc4[N+](=O)[O-])nn3)CC[C@]3(C)C(=CC[C@@H]4[C@@]5(C)CC[C@H](O)[C@@](C)(CO)[C@@H]5CC[C@]43C)[C@@H]2C1	> 1000 µM	55.5	> 500	45 µM	111 µM	2 µM	22.5	93%
CC1(C)CC[C@]2(C(=O)OCc3ccc([N+](=O)[O-])cc3)CC[C@]3(C)C(=CC[C@@H]4[C@@]5(C)CC[C@H](O)[C@@](C)(CO)[C@@H]5CC[C@]43C)[C@@H]2C1	–	–	–	–	–	–	–	28%
COC(=O)C(NC(=O)[C@]12CCC(C)(C)C[C@H]1C1=CC[C@@H]3[C@@]4(C)CC[C@H](O)[C@@](C)(CO)[C@@H]4CC[C@@]3(C)[C@]1(C)CC2)c1ccccc1 (stereo not given in full)	–	–	–	–	–	–	–	60%
Cc1cccc(COC(=O)[C@]23CCC(C)(C)C[C@H]2C2=CC[C@@H]4[C@@]5(C)CC[C@H](O)[C@@](C)(CO)[C@@H]5CC[C@@]4(C)[C@]2(C)CC3)c1	–	–	–	–	–	–	–	66%
Cc1ccccc1COC(=O)[C@]12CCC(C)(C)C[C@H]1C1=CC[C@@H]3[C@@]4(C)CC[C@H](O)[C@@](C)(CO)[C@@H]4CC[C@@]3(C)[C@]1(C)CC2	–	–	–	–	–	–	–	39%
CC1(C)CC[C@]2(C(=O)OCc3ccccc3F)CC[C@]3(C)C(=CC[C@@H]4[C@@]5(C)CC[C@H](O)[C@@](C)(CO)[C@@H]5CC[C@]43C)[C@@H]2C1	–	–	–	–	–	–	–	26%
Cc1ccc(COC(=O)[C@]23CCC(C)(C)C[C@H]2C2=CC[C@@H]4[C@@]5(C)CC[C@H](O)[C@@](C)(CO)[C@@H]5CC[C@@]4(C)[C@]2(C)CC3)cc1	–	–	–	–	–	–	–	44%
CC1(C)CC[C@]2(C(=O)NCc3cn(Cc4ccccc4F)nn3)CC[C@]3(C)C(=CC[C@@H]4[C@@]5(C)CC[C@H](O)[C@@](C)(CO)[C@@H]5CC[C@]43C)[C@@H]2C1	–	–	–	–	–	–	–	31%
CC1(C)CC[C@]2(C(=O)NCc3cn(Cc4c(Cl)cccc4Cl)nn3)CC[C@]3(C)C(=CC[C@@H]4[C@@]5(C)CC[C@H](O)[C@@](C)(CO)[C@@H]5CC[C@]43C)[C@@H]2C1	–	–	–	–	–	–	–	41.7%
CC1(C)CC[C@]2(C(=O)NCc3cn(Cc4ccccc4)nn3)CC[C@]3(C)C(=CC[C@@H]4[C@@]5(C)CC[C@H](O)[C@@](C)(CO)[C@@H]5CC[C@]43C)[C@@H]2C1	–	–	–	–	–	–	–	11%
CC1(C)CC[C@]2(C(=O)OCc3ccc(F)cc3)CC[C@]3(C)C(=CC[C@@H]4[C@@]5(C)CC[C@H](O)[C@@](C)(CO)[C@@H]5CC[C@]43C)[C@@H]2C1	–	–	–	–	–	–	–	57%
CC1(C)CC[C@]2(C(=O)NCc3cn(Cc4c(F)cccc4F)nn3)CC[C@]3(C)C(=CC[C@@H]4[C@@]5(C)CC[C@H](O)[C@@](C)(CO)[C@@H]5CC[C@]43C)[C@@H]2C1	–	–	–	–	–	–	–	45%
CC1(C)CC[C@]2(C(=O)OCc3cccc(Cl)c3)CC[C@]3(C)C(=CC[C@@H]4[C@@]5(C)CC[C@H](O)[C@@](C)(CO)[C@@H]5CC[C@]43C)[C@@H]2C1	–	–	–	–	–	–	–	23%
CC1(C)CC[C@]2(C(=O)NCc3cn(Cc4ccc(F)cc4)nn3)CC[C@]3(C)C(=CC[C@@H]4[C@@]5(C)CC[C@H](O)[C@@](C)(CO)[C@@H]5CC[C@]43C)[C@@H]2C1	–	–	–	–	–	–	–	10.2%
CC1(C)CC[C@]2(C(=O)OCc3cn(Cc4ccc(Br)cc4)nn3)CC[C@]3(C)C(=CC[C@@H]4[C@@]5(C)CC[C@H](O)[C@@](C)(CO)[C@@H]5CC[C@]43C)[C@@H]2C1	–	–	–	–	–	–	–	27.7%
CC1(C)CC[C@]2(C(=O)NCCN3CCCC3)CC[C@]3(C)C(=CC[C@@H]4[C@@]5(C)CC[C@H](O)[C@@](C)(CO)[C@@H]5CC[C@]43C)[C@@H]2C1	–	–	–	–	–	–	–	0%
CC1(C)CC[C@]2(C(=O)OCc3cccc([N+](=O)[O-])c3)CC[C@]3(C)C(=CC[C@@H]4[C@@]5(C)CC[C@H](O)[C@@](C)(CO)[C@@H]5CC[C@]43C)[C@@H]2C1	70 µM	32	5.2	63 µM	314 µM	9.7 µM	6.4	60.5%
CC1(C)CC[C@]2(C(=O)OCc3cn(Cc4ccc(Cl)cc4)nn3)CC[C@]3(C)C(=CC[C@@H]4[C@@]5(C)CC[C@H](O)[C@@](C)(CO)[C@@H]5CC[C@]43C)[C@@H]2C1	–	–	–	–	–	–	–	35%
CC1(C)CC[C@]2(C(=O)OCc3cn(Cc4c(F)cccc4F)nn3)CC[C@]3(C)C(=CC[C@@H]4[C@@]5(C)CC[C@H](O)[C@@](C)(CO)[C@@H]5CC[C@]43C)[C@@H]2C1	–	–	–	–	–	–	–	34%
